According to PubChem BioAssay (NCI):
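Cells were grown in 96-well plates and exposed to each compound for 48 hours at five concentrations; endpoints were interpolated linearly between bracketing concentrations, or set to the highest concentration if not reached. GI50 = concentration required for 50% inhibition of growth. Definition used: TGI = concentration required for complete inhibition of growth.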

Assays:
Test in all cases: DTP human tumour cell line panel, 48 h
CAKI-1 renal = system: CAKI-1 renal
HOP-92 NSCLC = system: HOP-92 NSCLC
HT29 colon = system: HT29 colon
NCI-H522 lung = system: NCI-H522 lung
OVCAR-8 ovarian = system: OVCAR-8 ovarian
SK-MEL-2 melanoma = system: SK-MEL-2 melanoma
SN12C renal = system: SN12C renal
SW-620 colon = system: SW-620 colon
UACC-62 melanoma = system: UACC-62 melanoma
ACHN renal = system: ACHN renal

Row | SMILES | TGI (CAKI-1 renal) | TGI (HOP-92 NSCLC) | TGI (HT29 colon) | TGI (NCI-H522 lung) | TGI (OVCAR-8 ovarian) | TGI (SK-MEL-2 melanoma) | TGI (SN12C renal) | TGI (SW-620 colon) | TGI (UACC-62 melanoma) | TGI (ACHN renal) | GI50 (ACHN renal) | GI50 (CAKI-1 renal) | GI50 (HOP-92 NSCLC) | GI50 (NCI-H522 lung) | GI50 (OVCAR-8 ovarian) | GI50 (SK-MEL-2 melanoma) | GI50 (SN12C renal) | GI50 (SW-620 colon) | GI50 (UACC-62 melanoma) | GI50 (HT29 colon)
1 | O=c1c(-c2ccccc2)c[nH]c2cc([N+](=O)[O-])c(/C(Cl)=C/c3ccccc3)cc12 | 87.7 µM | 10.6 µM | > 51.6 µM | 16.3 µM | 17.5 µM | > 100 µM | 43.7 µM | 26.8 µM | 22.6 µM | – | – | – | – | – | – | – | – | – | – | –
2 | C[Si](C)(C)C#C[I+]c1ccccc1 | > 100 µM | > 100 µM | > 100 µM | 23.3 µM | 50.1 µM | > 100 µM | 64.7 µM | – | > 100 µM | > 100 µM | – | – | – | – | – | – | – | – | – | –
3 | O=C(O)CCCN1CCCCC1 | > 100 µM | > 100 µM | > 100 µM | > 100 µM | > 100 µM | > 100 µM | > 100 µM | > 100 µM | > 100 µM | > 100 µM | – | – | – | – | – | – | – | – | – | –
4 | Cc1c2cc[n+](C)cc2c(C)c2c1[nH]c1ccc(O)cc12 | > 100 µM | 52.4 µM | > 81.1 µM | 55.9 µM | > 98.3 µM | > 96.9 µM | 15.5 µM | > 100 µM | 82.1 µM | – | – | – | – | – | – | – | – | – | – | –
5 | CN1CCN(c2ccc3nc(-c4ccc(OCCCN5C(=O)c6cccc7cccc(c67)C5=O)cc4)[nH]c3c2)CC1 | > 100 µM | 3.29 µM | – | > 88.8 µM | 5.48 µM | 62.4 µM | 34.8 µM | 3.44 µM | 10.1 µM | 11.2 µM | 5.34 µM | 18.8 µM | 1.66 µM | 24.9 µM | 2.38 µM | 25.2 µM | 15.6 µM | 1.83 µM | 5.18 µM | –
6 | CC(=O)O[C@H]1C(=O)[C@]2(C)[C@@H](OC(=O)OCC(O)CO)C[C@H]3OC[C@@]3(OC(C)=O)[C@H]2[C@H](OC(=O)c2ccccc2)[C@]2(O)C[C@H](OC(=O)[C@H](O)[C@@H](NC(=O)c3ccccc3)c3ccccc3)C(C)=C1C2(C)C (stereo partly drawn) | > 68.8 µM | > 85.3 µM | – | – | > 78.1 µM | – | > 100 µM | 22.1 µM | 21.2 µM | > 100 µM | – | – | – | – | – | – | – | – | – | –
7 | COc1cc(-c2ccc(-c3ccc(C(=N)N)s3)s2)cc(OC)c1OC | 3.28 µM | – | – | – | 5.31 µM | – | 3.17 µM | – | 3.17 µM | 3.17 µM | 1.78 µM | 1.7 µM | – | – | 2.62 µM | – | 1.61 µM | – | 1.7 µM | –
8 | Cc1c2cc[n+](C)cc2c(COC2OC(CO)C(O)C2O)c2c3ccccc3n(C)c12 (stereo not drawn) | > 100 µM | > 100 µM | > 100 µM | > 100 µM | > 100 µM | > 100 µM | 89.1 µM | > 100 µM | > 100 µM | – | – | – | – | – | – | – | – | – | – | –
9 | NC(=O)c1cc2ccccc2c(N=Nc2ccccc2)c1O | 69.9 µM | > 100 µM | > 100 µM | > 100 µM | > 100 µM | > 100 µM | > 100 µM | > 100 µM | > 100 µM | – | – | – | – | – | – | – | – | – | – | –
10 | O=C(CCN1CCCC1)Nc1ccc2c(NCCCCc3ccccc3)c3ccccc3nc2c1 | 22.3 µM | 2.32 µM | – | – | – | 3.34 µM | 2.39 µM | 1.86 µM | 3.12 µM | 2.59 µM | 1.32 µM | 9.49 µM | 1.06 µM | – | – | 1.76 µM | 1.08 µM | 0.534 µM | 1.67 µM | –
11 | CCCCN(CCCC)CC(=O)c1ccc2cc(Cl)c3ccccc3c2c1 | 78.6 µM | > 100 µM | 46 µM | 47.3 µM | 51.8 µM | 69.9 µM | > 100 µM | > 100 µM | > 100 µM | 49 µM | – | – | – | – | – | – | – | – | – | –
12 | COc1cccc2c1C(=O)c1c(O)c3c(c(O)c1C2=O)C[C@@](O)(C(C)=O)C[C@@H]3OC1CC(N)C(O)C(C)O1 (stereo partly drawn) | – | – | – | – | – | – | – | – | – | – | < 0.011 µM | – | < 0.0104 µM | < 0.0155 µM | < 0.0201 µM | 0.122 µM | < 0.0179 µM | – | < 0.0166 µM | 0.0246 µM
13 | CC(C)(C)CC(C)(C)Cc1ccc(OCCOCC[N+](C)(C)Cc2ccccc2)cc1 | 13.8 µM | 2.56 µM | 3.1 µM | 4.45 µM | – | – | 3.04 µM | 3.35 µM | 2.54 µM | 27 µM | 11.8 µM | 3.47 µM | 1.23 µM | 1.55 µM | – | – | 1.57 µM | 1.64 µM | 1.26 µM | 1.5 µM
14 | CCC1=C(C)C2=NC1=CC1=NC(=C(CC)/C1=C/O)C=C1N=C3C(=C1C)C(=O)C(C(=O)OC)C3=C1NC(=C2)C(C)C1CCC(=O)OC (stereo not drawn) | > 100 µM | > 100 µM | > 100 µM | > 100 µM | > 100 µM | > 100 µM | > 100 µM | > 100 µM | > 100 µM | > 100 µM | – | – | – | – | – | – | – | – | – | –
15 | N#Cc1ccc(Nc2nc3nc[nH]c3c(=O)[nH]2)cc1 | > 100 µM | > 100 µM | > 100 µM | > 100 µM | > 100 µM | > 100 µM | > 100 µM | > 100 µM | > 100 µM | > 100 µM | – | – | – | – | – | – | – | – | – | –
16 | Cc1cc(SCC(=O)c2ccc(Br)cc2)cc(C)[o+]1 | > 100 µM | 74.8 µM | 65.2 µM | 65.2 µM | > 100 µM | 76 µM | > 100 µM | > 100 µM | > 100 µM | 96.2 µM | – | – | – | – | – | – | – | – | – | –
